# Measurements taken from US5541174A, “Analgesic method” (priority 1995, dated 1996).
# Key:
# [1] = system: acetic acid induced writhing in mice; experiment: Acetic acid-induced writhing test; type: in vivo, ICR male mice
# Experimental: 1. Acetic acid-induced writhing test as described in Koster et al., "Acetic Acid for Analgesic Screening", Fed. Proc. 18, 412 (1959), incorporated by reference herein; and
# Groups of 10 ICR male mice (Taisho Pharmaceutical Co. Research Center) were used to study each dose of every compound. Ligands or complexes were administered orally or subcutaneously in 0.1 ml of vehicle per 10 g of body weight 30 minutes before the intrapertioneal injection of 0.1 ml of 0.7% acetic acid solution per 10 g of body weight. Number of writhes were counted for each mouse during a period of 10 to 20 min after acetic acid injection. Inhibitory percent was calculated by comparison with the number of writhes in the non-treated control, vehicle-treated, and acetic acid-injected group. The ED50 value and 95% confidence limits were calculated from the inhibitory percent by the method of Litchfield and Wilcoxon.
# [2] = system: adjuvant-induced arthritic pain in rats; experiment: Adjuvant-induced arthritic pain; type: in vivo, male Sprague-Dawley rats
# Excerpt: 2. Adjuvant-induced arthritic pain as described in:
# S. KUZNA, et al., Measurement of Arthritic Pain and Effects of Analgesics in the Adjuvant-Treated Rat, Chem. Pharm. Bull. 23, 1184-1191 (1975);
# C. A. WINTER, et al., Analgesic Activity of Diflunisal in Rats with Hyperalygesia Induced by Freud's Adjuvant, J. Pharmacol. Exp. Ther. 211, 678-685 (1979; and
# M. E. ROSENTHALE, et al., Adjuvant Arthritis:Immuno-Pathological and Hyperalgesic Features, Fed. Proced. 41, 2577-2582 (1982),
# incorporated by reference herein.
# Groups of 5-6 male Sprague-Dawley rats (Taisho Pharmaceutical Co. Research Center) weighing 140 to 160 g at the time of Mycobacterium butyricum (adjuvant, Difco Laboratories, Detroit, Mich.) injection were used to study each compound. Rats were injected intradermally at the base of the tail with 0.1 ml of a parafin oil suspension of 0.5 mg of heat-killed mycobacterium. Fifteen to 19 days later, drugs were administered orally or subcutaneously in 0.5 ml of vehicle per 100 g of body weight to rats showing the nociceptive reaction, vocalization following a gentle flexion of the tarsal-tibial joint of the inflamed hind-paw. Vocalization responses were measured every hour for 5 hours. […] The ED50 value and 95% confidence limits were calculated from the positive rate for non-treated controls, vehicle-treated adjuvant arthritic rats, by the method of Litchfield and Wilcoxin.
# All drugs were suspended with 5% gum arabic in saline solution or wetted with enough propylene glycol to give a final concentration of 4% propylene glycol and the wetted solid suspended in 1.4% polyvinyl alcohol in saline.
# [3] = oral, 5% gum arabic, 0.30 mmol/kg
# [4] = oral, 5% gum arabic, 0.59 mmol/kg
# [5] = oral, 5% gum arabic, 0.04 mmol/kg
# [6] = oral, 5% gum arabic, 0.08 mmol/kg
# [7] = oral, 5% gum arabic, 0.42 mmol/kg
# [8] = oral, 5% gum arabic, 0.06 mmol/kg
# [9] = oral, 5% gum arabic, 0.12 mmol/kg
# [10] = oral, 5% gum arabic, 0.24 mmol/kg
molecule,measurement,setting,value
(Salicylato)2n -(aqua)4n -copper(II)n [Cu(II)(salicylate)2],ED50,"[1]; oral, 5% gum arabic in saline",0.65 mmol/kg
same,analgesic effectiveness versus parent ligand,"[1]; oral, 5% gum arabic in saline",more effective than their parent ligands
same,% Inhibition,[1]; [3],30%
same,% Inhibition,[1]; [4],43%
same,% Inhibition,"[1]; oral, 5% gum arabic, 1.18 mmol/kg",69%
same,analgesic effectiveness versus parent ligand,"[1]; oral, PG-PVA",more effective than their parent ligands
same,ED50,"[1]; oral, PG-PVA in saline",1.53 mmol/kg
same,% Inhibition,"[1]; oral, PG-PVA, 0.30 mmol/kg",20%
same,% Inhibition,"[1]; oral, PG-PVA, 0.59 mmol/kg",27%
same,% Inhibition,"[1]; oral, PG-PVA, 1.18 mmol/kg",46%
same,ED50,"[1]; s.c., PG-PVA in saline",0.17 mmol/kg
same,% Inhibition,"[1]; s.c., PG-PVA, 0.07 mmol/kg",40%
same,% Inhibition,"[1]; s.c., PG-PVA, 0.15 mmol/kg",48%
same,% Inhibition,"[1]; s.c., PG-PVA, 0.30 mmol/kg",66%
same,analgesic effectiveness versus parent ligand,"[2]; oral, 5% gum arabic",more effective than its parent ligand
same,ED50,"[2]; oral, 5% gum arabic in saline",0.25 mmol/kg
same,% Inhibition,"[2]; oral, 5% gum arabic, 0.15 mmol/kg",27%
same,% Inhibition,[2]; [3],57%
same,% Inhibition,[2]; [4],73%
same,time course of analgesia,"[2]; oral, 5% gum arabic, FIG. 1, 5 hours post-treatment",maintained or increased throughout the entire 5 hour post-treatment interval
same,analgesic effectiveness versus parent ligand,"[2]; oral, PG-PVA",more effective than its parent ligand
same,ED50,"[2]; oral, PG-PVA in saline",0.12 mmol/kg
same,% Inhibition,"[2]; oral, PG-PVA, 0.15 mmol/kg",30%
same,% Inhibition,"[2]; oral, PG-PVA, 0.30 mmol/kg",47%
same,% Inhibition,"[2]; oral, PG-PVA, 0.59 mmol/kg",90%
same,ED50,"[2]; s.c., PG-PVA in saline",0.12 mmol/kg
same,% Inhibition,"[2]; s.c., PG-PVA, 0.04 mmol/kg",20%
same,% Inhibition,"[2]; s.c., PG-PVA, 0.07 mmol/kg",37%
same,% Inhibition,"[2]; s.c., PG-PVA, 0.15 mmol/kg",57%
Cu(II)2 (acetate)4,ED50,"[1]; s.c., PG-PVA in saline",0.32 mmol/kg
same,% Inhibition,"[1]; s.c., PG-PVA, 0.21 mmol/kg",42%
same,% Inhibition,"[1]; s.c., PG-PVA, 0.41 mmol/kg",59%
same,% Inhibition,"[1]; s.c., PG-PVA, 0.83 mmol/kg",61%
same,effectiveness versus other compounds,"[1]; writhing model, Tables I and II","more effective than anthranilic acid, salicylic acid, and aspirin"
same,analgesic activity,[2]; doses statistically significantly analgesic in the writhing model,devoid of analgesic activity
same,ED50,"[2]; oral, PG-PVA in saline",> 0.83 mmol/kg
same,% Inhibition,"[2]; oral, PG-PVA, 0.83 mmol/kg",0%
same,ED50,"[2]; s.c., PG-PVA in saline",> 0.83 mmol/kg
same,% Inhibition,"[2]; s.c., PG-PVA, 0.83 mmol/kg",3%
[2[3(trifluoromethyl)phenyl]aminonicotinato]2n -(aqua)n -copper(II)n [Cu(II)2 (niflumate)4],ED50,"[1]; oral, 5% gum arabic in saline",0.09 mmol/kg
same,analgesic effectiveness versus parent ligand,"[1]; oral, 5% gum arabic in saline",more effective than their parent ligands
same,% Inhibition,[1]; [5],37%
same,% Inhibition,[1]; [6],48%
same,analgesic effectiveness versus parent ligand,"[1]; oral, PG-PVA",more effective than their parent ligands
same,ED50,"[1]; oral, PG-PVA in saline",0.10 mmol/kg
same,% Inhibition,"[1]; oral, PG-PVA, 0.06 mmol/kg",33%
same,% Inhibition,"[1]; oral, PG-PVA, 0.12 mmol/kg",57%
same,% Inhibition,"[1]; oral, PG-PVA, 0.24 mmol/kg",73%
same,ED50,"[1]; s.c., PG-PVA in saline",0.02 mmol/kg
same,% Inhibition,"[1]; s.c., PG-PVA, 0.01 mmol/kg",37%
same,% Inhibition,"[1]; s.c., PG-PVA, 0.02 mmol/kg",48%
same,% Inhibition,"[1]; s.c., PG-PVA, 0.04 mmol/kg",58%
same,analgesic effectiveness versus parent ligand,"[2]; oral, 5% gum arabic",more effective than their parent ligand
same,ED50,"[2]; oral, 5% gum arabic in saline",0.18 mmol/kg
same,% Inhibition,[2]; [5],7%
same,% Inhibition,[2]; [6],13%
same,ED50,"[2]; oral, PG-PVA in saline",> 0.16 mmol/kg
same,ED50,"[2]; s.c., PG-PVA in saline",0.03 mmol/kg
same,% Inhibition,"[2]; s.c., PG-PVA, 0.01 mmol/kg",17%
same,% Inhibition,"[2]; s.c., PG-PVA, 0.02 mmol/kg",50%
same,% Inhibition,"[2]; s.c., PG-PVA, 0.04 mmol/kg",60%
C[C@H](N)C(=O)[O-].C[C@H](N)C(=O)[O-].[Cu+2] [Cu(II)(L-alaninate)2],activity versus other copper complexes and parent ligand,[1]; Table VI,less active than the other copper complexes
same,ED50,"[1]; oral, 5% gum arabic in saline",0.92 mmol/kg
same,% Inhibition,[1]; [7],22%
same,% Inhibition,"[1]; oral, 5% gum arabic, 0.83 mmol/kg",48%
same,% Inhibition,"[1]; oral, 5% gum arabic, 1.67 mmol/kg",71%
same,ED50,"[2]; oral, 5% gum arabic in saline",> 0.42 mmol/kg
same,% Inhibition,[2]; [7],0%
Tetra(.eta.-acetylsalicylato)biscopper(II) [Cu(II)2 (aspirinate)4],ED50,"[1]; oral, 5% gum arabic in saline",> 0.24 mmol/kg
same,analgesic effectiveness versus parent ligand,"[1]; oral, 5% gum arabic in saline",more effective than their parent ligands
same,% Inhibition,[1]; [8],37%
same,% Inhibition,[1]; [9],38%
same,% Inhibition,[1]; [10],33%
same,analgesic effectiveness versus parent ligand,"[1]; oral, PG-PVA",more effective than their parent ligands
same,ED50,"[1]; oral, PG-PVA in saline",0.14 mmol/kg
same,% Inhibition,"[1]; oral, PG-PVA, 0.09 mmol/kg",32%
same,% Inhibition,"[1]; oral, PG-PVA, 0.18 mmol/kg",59%
same,% Inhibition,"[1]; oral, PG-PVA, 0.36 mmol/kg",80%
same,ED50,"[1]; s.c., PG-PVA in saline",0.04 mmol/kg
same,% Inhibition,"[1]; s.c., PG-PVA, 0.03 mmol/kg",36%
same,% Inhibition,"[1]; s.c., PG-PVA, 0.06 mmol/kg",59%
same,% Inhibition,"[1]; s.c., PG-PVA, 0.24 mmol/kg",82%
same,analgesic effectiveness versus parent ligand,"[2]; oral, 5% gum arabic",more effective than their parent ligand
same,ED50,"[2]; oral, 5% gum arabic in saline",0.29 mmol/kg
same,% Inhibition,[2]; [8],7%
same,% Inhibition,[2]; [9],17%
same,% Inhibition,[2]; [10],43%
same,ED50,"[2]; oral, PG-PVA in saline",0.09 mmol/kg
same,% Inhibition,"[2]; oral, PG-PVA, 0.03 mmol/kg",13%
same,% Inhibition,"[2]; oral, PG-PVA, 0.06 mmol/kg",30%
same,% Inhibition,"[2]; oral, PG-PVA, 0.12 mmol/kg",60%
same,ED50,"[2]; s.c., PG-PVA in saline",0.06 mmol/kg
same,% Inhibition,"[2]; s.c., PG-PVA, 0.03 mmol/kg",23%
same,% Inhibition,"[2]; s.c., PG-PVA, 0.06 mmol/kg",50%
same,% Inhibition,"[2]; s.c., PG-PVA, 0.12 mmol/kg",73%
